Data as given in ChEMBL document CHEMBL5678812, “Inhibitors of p21-activated kinases (PAKs)” (J Med Chem, 2015).
≈ marks a conversion by molar mass, not a printed value. Blank lines part the entries; values can stand above or below the compound they belong to.

Tests used:
[1] = Oral bioavailability in dog at 10 mg/kg; format: ADME, organism-based, Canis lupus familiaris; conditions: in vivo
[2] = Apparent permeability across apical to basolateral side in human Caco-2 cells; format: ADME, cell-based
HCT-116 [3] = experiment: Antitumor activity against human HCT-116 cells xenografted in mouse assessed as tumor growth inhibition at 12 mg/kg, po; format: functional; conditions: read-out: TGI
[4] = target: Serine/threonine-protein kinase PAK 4 (Mus musculus, UniProt Q8BTW9); experiment: Inhibition of PAK4 in mouse NIH3T3 cells assessed as reduction in phosphorylated GEF-H1 accumulation incubated for 30 mins by immunoblotting analysis; format: cell-based
[5] = Half life in dog at 10 mg/kg, po; format: ADME, organism-based, Canis lupus familiaris; conditions: in vivo
[6] = Clearance in dog at 10 mg/kg, po; format: ADME, organism-based, Canis lupus familiaris; conditions: in vivo
M24met [7] = experiment: Antitumor activity against human M24met cells xenografted in mouse assessed as tumor growth inhibition at 15 mg/kg, po; format: functional; conditions: read-out: TGI
HCT-116 [8] = experiment: Antitumor activity against human HCT-116 cells xenografted in mouse assessed as tumor growth inhibition at 20 mg/kg, po; format: functional; conditions: read-out: TGI
[9] = Clearance in rat at 10 mg/kg, po; format: ADME, organism-based; conditions: in vivo
[10] = target: T1, Serine/threonine-protein kinase PAK 4 (Homo sapiens, UniProt O96013); experiment: Inhibition of PAK4 (unknown origin) assessed as inhibition constant
Target sequence in this assay (O96013 whole entry): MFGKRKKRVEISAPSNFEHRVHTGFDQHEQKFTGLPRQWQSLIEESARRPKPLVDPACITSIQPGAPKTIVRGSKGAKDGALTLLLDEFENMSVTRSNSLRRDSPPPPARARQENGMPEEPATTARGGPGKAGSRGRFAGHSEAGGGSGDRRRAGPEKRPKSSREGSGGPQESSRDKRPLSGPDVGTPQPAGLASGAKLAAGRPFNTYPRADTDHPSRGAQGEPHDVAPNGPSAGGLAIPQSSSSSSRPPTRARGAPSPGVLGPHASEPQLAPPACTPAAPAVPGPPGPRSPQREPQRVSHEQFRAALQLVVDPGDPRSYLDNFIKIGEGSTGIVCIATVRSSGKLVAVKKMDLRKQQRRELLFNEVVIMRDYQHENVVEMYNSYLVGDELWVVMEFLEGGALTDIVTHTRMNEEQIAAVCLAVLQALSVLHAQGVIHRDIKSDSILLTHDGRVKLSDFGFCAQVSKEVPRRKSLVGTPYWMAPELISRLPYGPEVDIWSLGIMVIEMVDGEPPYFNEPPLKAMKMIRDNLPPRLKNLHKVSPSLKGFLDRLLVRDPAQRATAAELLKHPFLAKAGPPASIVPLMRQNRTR

[11] = target: T1, Serine/threonine-protein kinase PAK 4; experiment: Inhibition of PAK4 (unknown origin)
Target sequence in this assay (O96013 whole entry): as above

[12] = Kinetic solubility of compound; format: physicochemical; conditions: read-out: Kinetic_solubility
[13] = target: Serine/threonine-protein kinase PAK 2 (Homo sapiens, UniProt Q13177); experiment: Binding affinity to PAK2 (unknown origin) assessed as dissociation constant
[14] = target: T1, Serine/threonine-protein kinase PAK 4; experiment: Inhibition of PAK4 (unknown origin) in presence of ATP by Z-LYTE enzymatic kinase assay
Target sequence in this assay (O96013 whole entry): as above

[15] = target: T1, Serine/threonine-protein kinase PAK 4; experiment: Inhibition of PAK4 (unknown origin) at 10 uM relative to control
Target sequence in this assay (O96013 whole entry, looked up): as the sequence (O96013 whole entry) above

[16] = target: T1, Serine/threonine-protein kinase PAK 4; experiment: Inhibition of PAK4 (unknown origin) using 5-FAM-AhxKKRNRRLSVA-amide as substrate incubated for 90 mins by caliper off-chip mobility shift assay
Target sequence in this assay (O96013 whole entry): as above

M24met [17] = experiment: Antitumor activity against human M24met cells xenografted in mouse assessed as tumor growth inhibition at 7.5 to 30 mg/kg, po measured for 9 to 18 days; format: functional; conditions: dose 7.5-30 mg/kg, time 9-18 day
COLO 205 = experiment: Antitumor activity against human COLO 205 cells xenografted in mouse assessed as tumor growth inhibition at 7.5 to 30 mg/kg, po measured for 9 to 18 days; format: functional; conditions: dose 7.5-30 mg/kg, time 9-18 day
HCT-116 [18] = experiment: Antitumor activity against human HCT-116 cells xenografted in mouse assessed as tumor growth inhibition at 7.5 to 30 mg/kg, po measured for 9 to 18 days; format: functional; conditions: dose 7.5-30 mg/kg, time 9-18 day
MDA-MB-231 = experiment: Antitumor activity against human MDA-MB-231 cells xenografted in mouse assessed as tumor growth inhibition at 7.5 to 30 mg/kg, po measured for 9 to 18 days; format: functional; conditions: dose 7.5-30 mg/kg, time 9-18 day
A549 = experiment: Antitumor activity against human A549 cells xenografted in mouse assessed as tumor growth inhibition at 7.5 to 30 mg/kg, po measured for 9 to 18 days; format: functional; conditions: dose 7.5-30 mg/kg, time 9-18 day
[19] = target: Tumour suppressor p53/oncoprotein Mdm2 (Homo sapiens, UniProt P04637+Q00987); experiment: Inhibition of MDM2/p53 (unknown origin) interaction; format: protein assay
[20] = Inhibition of p53/pin 1 (unknown origin) interaction; parameters: species or system Homo sapiens
[21] = target: Cyclin-dependent kinase 7 (Homo sapiens, UniProt P50613); experiment: Inhibition of CDK7 (unknown origin)
[22] = target: Serine/threonine-protein kinase PAK 6 (Homo sapiens, UniProt Q9NQU5); experiment: Inhibition of recombinant PAK6 (unknown origin)
[23] = target: Serine/threonine-protein kinase PAK 5 (Homo sapiens, UniProt Q9P286); experiment: Binding affinity to PAK7 (unknown origin) assessed as dissociation constant
[24] = target: T1, Serine/threonine-protein kinase PAK 4; experiment: Binding affinity to PAK4 (unknown origin) assessed as dissociation constant
Target sequence in this assay (O96013 whole entry): as above

[25] = target: Serine/threonine-protein kinase PAK 3 (Homo sapiens, UniProt O75914); experiment: Binding affinity to PAK3 (unknown origin) assessed as dissociation constant
HCT-116 [26] = experiment: Antitumor activity against human HCT-116 cells xenografted in mouse assessed as downregulation of GEF-H1 phosphorylation at 25 mg/kg, po measured after 18 hrs; format: functional

Sequence of Serine/threonine-protein kinase PAK 4 (Mus musculus, UniProt Q8BTW9) (Q8BTW9 whole entry): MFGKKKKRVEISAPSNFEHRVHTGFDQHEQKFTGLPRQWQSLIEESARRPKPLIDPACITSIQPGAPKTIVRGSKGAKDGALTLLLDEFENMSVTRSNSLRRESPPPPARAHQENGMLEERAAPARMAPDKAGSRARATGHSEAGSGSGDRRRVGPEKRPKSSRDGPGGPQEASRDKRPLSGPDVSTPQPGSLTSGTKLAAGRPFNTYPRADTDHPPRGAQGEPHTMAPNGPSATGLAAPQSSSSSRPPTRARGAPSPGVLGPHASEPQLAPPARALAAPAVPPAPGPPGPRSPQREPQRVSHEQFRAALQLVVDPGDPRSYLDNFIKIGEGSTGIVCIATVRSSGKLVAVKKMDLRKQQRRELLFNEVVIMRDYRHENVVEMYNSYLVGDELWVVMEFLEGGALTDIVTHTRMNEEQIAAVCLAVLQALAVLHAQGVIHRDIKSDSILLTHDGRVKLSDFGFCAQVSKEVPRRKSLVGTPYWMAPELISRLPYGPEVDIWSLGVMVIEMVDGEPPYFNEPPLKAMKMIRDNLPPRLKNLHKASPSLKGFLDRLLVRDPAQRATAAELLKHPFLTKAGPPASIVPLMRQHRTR
Sequence of Serine/threonine-protein kinase PAK 2 (Q13177 whole entry): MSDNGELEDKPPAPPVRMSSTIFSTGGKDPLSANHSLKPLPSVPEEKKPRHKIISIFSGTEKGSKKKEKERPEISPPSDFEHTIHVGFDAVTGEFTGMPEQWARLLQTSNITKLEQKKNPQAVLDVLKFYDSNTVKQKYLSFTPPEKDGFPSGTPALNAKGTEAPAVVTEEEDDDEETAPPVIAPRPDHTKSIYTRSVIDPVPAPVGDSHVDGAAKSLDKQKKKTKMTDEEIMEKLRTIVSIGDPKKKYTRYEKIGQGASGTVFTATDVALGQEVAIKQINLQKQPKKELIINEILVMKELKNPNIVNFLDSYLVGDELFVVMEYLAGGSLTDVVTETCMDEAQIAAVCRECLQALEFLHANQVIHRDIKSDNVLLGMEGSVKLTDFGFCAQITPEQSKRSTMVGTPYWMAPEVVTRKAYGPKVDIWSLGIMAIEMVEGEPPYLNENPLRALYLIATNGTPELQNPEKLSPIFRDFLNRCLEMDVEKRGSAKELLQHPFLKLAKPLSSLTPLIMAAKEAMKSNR
Sequence of Serine/threonine-protein kinase PAK 6 (Q9NQU5 whole entry): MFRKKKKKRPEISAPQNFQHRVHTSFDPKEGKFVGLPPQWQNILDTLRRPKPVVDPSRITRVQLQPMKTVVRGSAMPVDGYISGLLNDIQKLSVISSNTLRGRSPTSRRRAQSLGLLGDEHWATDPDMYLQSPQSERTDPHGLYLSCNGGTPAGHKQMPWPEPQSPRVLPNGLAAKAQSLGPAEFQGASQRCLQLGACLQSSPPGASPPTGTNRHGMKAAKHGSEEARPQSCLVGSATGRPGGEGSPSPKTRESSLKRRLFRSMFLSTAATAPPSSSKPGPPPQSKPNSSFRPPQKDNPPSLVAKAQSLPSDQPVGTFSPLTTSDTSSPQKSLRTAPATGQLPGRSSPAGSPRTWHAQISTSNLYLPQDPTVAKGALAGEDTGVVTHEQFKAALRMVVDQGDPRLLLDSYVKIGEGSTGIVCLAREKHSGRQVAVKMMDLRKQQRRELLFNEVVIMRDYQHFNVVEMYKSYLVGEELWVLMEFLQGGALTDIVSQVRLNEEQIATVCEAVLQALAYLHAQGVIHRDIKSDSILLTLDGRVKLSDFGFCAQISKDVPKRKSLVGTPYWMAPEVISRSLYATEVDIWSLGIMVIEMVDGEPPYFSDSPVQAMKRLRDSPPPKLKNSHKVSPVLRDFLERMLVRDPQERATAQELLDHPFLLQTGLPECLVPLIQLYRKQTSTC
Sequence of Cyclin-dependent kinase 7 (P50613 whole entry): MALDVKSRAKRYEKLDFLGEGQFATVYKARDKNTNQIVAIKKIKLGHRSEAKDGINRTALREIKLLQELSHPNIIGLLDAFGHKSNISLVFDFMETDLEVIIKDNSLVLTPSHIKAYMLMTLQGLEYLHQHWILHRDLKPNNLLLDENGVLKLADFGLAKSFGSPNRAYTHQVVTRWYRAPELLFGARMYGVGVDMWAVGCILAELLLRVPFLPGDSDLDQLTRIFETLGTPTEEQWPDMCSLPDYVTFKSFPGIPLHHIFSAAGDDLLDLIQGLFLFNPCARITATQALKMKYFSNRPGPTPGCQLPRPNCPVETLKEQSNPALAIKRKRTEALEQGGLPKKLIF
Sequence of Serine/threonine-protein kinase PAK 5 (Q9P286 whole entry): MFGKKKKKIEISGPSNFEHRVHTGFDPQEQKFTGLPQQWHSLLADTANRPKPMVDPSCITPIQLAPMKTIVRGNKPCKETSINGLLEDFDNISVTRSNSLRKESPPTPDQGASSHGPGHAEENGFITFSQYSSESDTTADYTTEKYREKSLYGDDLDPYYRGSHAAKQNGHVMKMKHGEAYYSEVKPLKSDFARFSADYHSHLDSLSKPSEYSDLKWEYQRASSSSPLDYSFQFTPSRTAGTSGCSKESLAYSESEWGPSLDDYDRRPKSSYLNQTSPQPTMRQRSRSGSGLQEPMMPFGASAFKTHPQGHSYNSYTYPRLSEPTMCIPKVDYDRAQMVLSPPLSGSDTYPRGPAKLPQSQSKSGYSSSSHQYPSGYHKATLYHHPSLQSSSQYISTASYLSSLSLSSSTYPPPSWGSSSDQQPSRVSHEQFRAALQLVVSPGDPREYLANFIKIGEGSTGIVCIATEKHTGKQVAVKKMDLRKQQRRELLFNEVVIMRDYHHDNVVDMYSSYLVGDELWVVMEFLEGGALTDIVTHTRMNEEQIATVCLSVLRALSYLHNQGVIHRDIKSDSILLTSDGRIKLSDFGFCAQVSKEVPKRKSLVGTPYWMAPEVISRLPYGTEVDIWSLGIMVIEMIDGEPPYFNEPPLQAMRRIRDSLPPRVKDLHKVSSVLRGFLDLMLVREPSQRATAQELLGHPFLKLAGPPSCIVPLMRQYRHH
Sequence of Tumour suppressor p53/oncoprotein Mdm2 (P04637 whole entry): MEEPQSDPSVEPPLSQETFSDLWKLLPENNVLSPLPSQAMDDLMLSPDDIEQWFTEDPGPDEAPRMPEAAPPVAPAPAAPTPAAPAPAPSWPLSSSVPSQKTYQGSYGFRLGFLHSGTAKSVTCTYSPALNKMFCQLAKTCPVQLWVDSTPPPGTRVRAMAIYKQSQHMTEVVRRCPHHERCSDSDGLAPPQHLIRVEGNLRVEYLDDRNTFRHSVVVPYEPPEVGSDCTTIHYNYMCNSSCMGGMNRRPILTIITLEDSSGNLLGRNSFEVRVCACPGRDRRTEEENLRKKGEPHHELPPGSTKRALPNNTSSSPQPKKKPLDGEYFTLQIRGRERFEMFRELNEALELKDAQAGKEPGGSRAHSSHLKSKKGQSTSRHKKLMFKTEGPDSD
Sequence of Tumour suppressor p53/oncoprotein Mdm2 (Q00987 whole entry): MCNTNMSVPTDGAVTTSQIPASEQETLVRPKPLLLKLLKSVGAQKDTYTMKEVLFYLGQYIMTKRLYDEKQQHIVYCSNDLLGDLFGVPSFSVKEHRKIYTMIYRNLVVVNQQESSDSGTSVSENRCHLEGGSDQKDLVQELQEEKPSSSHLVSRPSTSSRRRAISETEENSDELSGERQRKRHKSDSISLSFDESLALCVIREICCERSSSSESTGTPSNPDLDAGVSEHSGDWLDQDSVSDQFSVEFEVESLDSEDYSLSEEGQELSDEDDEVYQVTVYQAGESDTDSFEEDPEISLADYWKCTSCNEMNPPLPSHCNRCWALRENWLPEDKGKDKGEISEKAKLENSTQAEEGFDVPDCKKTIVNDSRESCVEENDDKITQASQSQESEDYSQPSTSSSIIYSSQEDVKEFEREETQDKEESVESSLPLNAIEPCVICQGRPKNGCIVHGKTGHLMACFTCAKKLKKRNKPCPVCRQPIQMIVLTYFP

bioavailability [1]: 20%
Papp A→B [2]: 1.7 ×10⁻⁶ cm/s
EC50 [4]: 4 nM
half-life [5]: 132 min
CL/F [6]: 12 mL/min/kg
CL/F [9]: 52 mL/min/kg
SMILES: CN(C)C[C@@H](OC(=O)N1Cc2c(NC(=O)C(C)(C)C)n[nH]c2C1(C)C)c1ccccc1
inhibition in vivo at 12 mg/kg (HCT-116 [3]): 37%
inhibition in vivo at 15 mg/kg (M24met [7]): 68%
inhibition in vivo at 20 mg/kg (HCT-116 [8]): 52%

Ki [10]: 4 nM
SMILES: N[C@@H]1[C@H]2CN(c3nc(Nc4cc(C5CC5)[nH]n4)c4sccc4n3)C[C@@H]12

IC50 [11]: 790 nM
SMILES: COc1nc(NCCc2c[nH]c3ccccc23)nc(Nc2ccc3[nH]ncc3c2)n1

SMILES: CC(C)NC(=O)N1CCC(NC2=Nc3cc(F)ccc3N(CC(F)F)c3ccc(Cl)cc32)C1 (stereo not given)
solubility kinetic [12]: 55 µM (≈ 26.4 µg/mL)
Kd [13]: 400 nM

EC50 [4]: 810 nM
SMILES: CN1CCN(C(=O)N2Cc3c(NC(=O)c4cccc(Oc5ccccc5)c4)n[nH]c3C2(C)C)[C@@H](Cc2ccccc2)C1

IC50 [14]: > 10 µM
SMILES: CCn1c(=O)c(-c2ccc(-c3cncs3)cc2Cl)cc2cnc(Nc3ccc(N4CCN(C)CC4)cc3)nc21

SMILES: CCn1cnc2c(Nc3cccc(Cl)c3)nc(NC3CCCCC3N)nc21 (stereo not given)
inhibition [15]: 44%

EC50 [4]: 13 nM
SMILES: CN(C)C[C@@H](NC(=O)c1ccc2[nH]nc(-c3nc4ccccc4[nH]3)c2c1)c1ccccc1

IC50 [16]: 550 nM
SMILES: O=C(c1ccccc1Cl)c1n[nH]c2ncc(-c3cnn(C4CCNCC4)c3)cc12

IC50 [19]: 5.6 nM
IC50 [20]: 5.7 nM
IC50 [21]: 7 nM
IC50 [22]: ~20 nM
SMILES: Cc1nc(Nc2n[nH]c3c2CN(C(=O)N[C@H](CN(C)C)c2ccccc2)C3(C)C)c2sccc2n1 [PF-03758309]
TGI (M24met [17]): >70%
TGI (COLO 205): >70%
TGI (HCT-116 [18]): >70%
TGI (MDA-MB-231): >70%
TGI (A549): >70%

IC50 [11]: 960 nM
SMILES: CCn1c(=O)c(-c2ccc(-c3noc(C)n3)cc2Cl)cc2cnc(Nc3ccc(C4CCN(C)CC4)cc3)nc21

Kd [23]: > 40 µM
Kd [24]: > 40 µM
Kd [25]: > 40 µM
Kd [13]: 1100 nM
SMILES: CCN1c2ccc(F)cc2N=C(NC2CCN(C(=O)NC(C)(C)C)C2)c2cc(Cl)ccc21 (stereo not given)

Papp A→B [2]: 0.1 ×10⁻⁶ cm/s
EC50 [4]: 32 nM
SMILES: CN(C)C[C@@H](NC(=O)N1Cc2c(NC(=O)c3ccccc3)n[nH]c2C1(C)C)c1ccccc1
Activity (HCT-116 [26]): ~61%
